Assays:
[1] = tested on: Human large cell immunoblastic lymphoma cell line SR; experiment: Inhibition of SR cell proliferation (CellTiter luminescent viability); type: cell-based; settings: Table IA1, IRAK4 inhibitor-based, 96 hours, read-out: Inhibitory activity (IC50, nM) on tumor cell proliferation, SR
Method in brief: (§1)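 IC50 is fitted from luminescent viability (CellTiter-Meiluncell) curves. Nine-point, 5-fold dilution series (top stock 2000 μM) are added at 0.5 μL per 100 μL medium to cells plated the day before, with growth at 37 °C and 5% CO2.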

[2] = tested on: Human gastric cancer cell line MGC803; experiment: Inhibition of MGC803 tumor cell proliferation (CellTiter luminescent viability); type: cell-based; settings: Table IA1, IRAK4 inhibitor-based compounds; MGC803, 96 hours; read-out: Inhibitory activity (IC50, nM) on tumor cell proliferation, MGC803
Description: (§2) The tumor cells used herein were cultured in a cell culture medium listed in table 3 at 37 °C in an incubator with 5% CO2. Prior to experimentation, all cell lines used were correctly identified by STR profiling, and tested negative for mycoplasma contamination using a mycoplasma detection kit through routine screenings.
(§3) The IC50 values of the compounds of the present disclosure (including the compounds in Table 1, Table 2, and Examples 1-468) were determined using the CellTiter-Meiluncell Luminescent Cell Viability Assay Kit from Dalian Meilun Biotech Co., Ltd. The detailed procedure is as follows: Tumor cells were seeded in 96-well cell culture plates at the densities specified in Table 4. On the following day, the test compounds of the present disclosure were subjected to serial dilution. The dilution can be performed according to one of the following two methods: • (1) The first dilution method: The test compounds of the present disclosure (including the compounds in Table 1, Table 2, and Examples 1-468) were subjected to 5-fold serial dilutions starting from a highest concentration of 2000 μM, resulting in a total of 9 concentrations from high to low (2000, 400, 80, 16, 3.2, 0.64, 0.128, 0.0256, 0.00512 μM). Subsequently, 0.5 μL of the test compound dilution was transferred into the 96-well plate containing the cells, with each well containing 100 μL of cell culture medium. […] Into the 96-well plate, the diluted test compounds and corresponding detection reagents were added, resulting in final test compound concentrations of 500 nM and 10 nM, respectively. The experimental procedure is described below using the diluted 2 μM test compound as an example.
(§4) 0.5 μL of the aforementioned diluted compound of the present disclosure (including the compounds in Table 1, Table 2, and Examples 1-468) was added to the seeded cells in 100 μL of medium, yielding a final test compound concentration of 10 nM. After the cells were treated with the compounds of the present disclosure for a specified period, the cell viability assay reagent was added to the culture medium according to the kit's instructions to determine cell viability. […] All controls were treated using the same procedure as the compounds of the present disclosure. The growth inhibition curves for the compounds of the present disclosure were plotted using Prism GraphPad software, and the IC50 values were calculated therefrom.

JEKO-1 = experiment: Inhibition of JEKO-1 cell proliferation (CellTiter luminescent viability); type: cell-based, human; settings: Table IA1, IRAK4 inhibitor-based; JEKO-1, 96 hours; read-out: Inhibitory activity (IC50, nM) on tumor cell proliferation, JEKO-1
Description: as §2, §3, §4

[3] = tested on: Human diffuse large B-cell lymphoma cell line (TMD8); experiment: Inhibition of TMD8 cell proliferation (CellTiter luminescent viability); type: cell-based; settings: Homo sapiens, TMD8, 96 h, Table IF1, AR inhibitor-based; for inhibition at 0.01 µM: TMD8, 10 nM, read-out: Inhibition Rate at 10 nM (%); for inhibition at 0.5 µM: TMD8, 500 nM, read-out: Inhibition Rate at 500 nM (%)
[4] = tested on: Human Acute T Lymphoblastic Leukemia Cells (Molt-4); experiment: Inhibition of Molt-4 cell proliferation (CellTiter luminescent viability); type: cell-based; settings: Homo sapiens, MOLT-4, 96 h, Table IA2, IRAK4 inhibitor-based, 96 hours; for inhibition at 0.01 µM: Molt-4, 10 nM, read-out: Inhibition Rate at 10 nM (%); for inhibition at 0.5 µM: Molt-4, 500 nM, read-out: Inhibition Rate at 500 nM (%)
[5] = tested on: Human myeloid monocytic leukemia cell line (MV-4-11); experiment: Inhibition of MV-4-11 cell proliferation (CellTiter luminescent viability); type: cell-based; settings: Homo sapiens, MV4-11, Table IA3, IRAK4 inhibitor-based, 96 hours; for inhibition at 0.01 µM: MV-4-11, 10 nM, read-out: Inhibition Rate at 10 nM (%); for inhibition at 0.5 µM: MV-4-11, 500 nM, read-out: Inhibition Rate at 500 nM (%)
Method in brief: as §1

[6] = tested on: Human acute lymphocytic leukemia T lymphocytes cell line (CCRF-CEM); experiment: Inhibition of CCRF-CEM cell proliferation (CellTiter luminescent viability); type: cell-based; settings: Homo sapiens, 96 h, Table IF2, AR inhibitor-based; for inhibition at 0.01 µM: 10 nM, read-out: Inhibition Rate at 10 nM (%); for inhibition at 0.5 µM: 500 nM, read-out: Inhibition Rate at 500 nM (%)

What does the source list for `O=C1CCN(N2Cc3cc(CN4CCC(n5cc(NC(=O)c6coc(-c7ccnc(NCC8CC8)c7)n6)c(C(F)F)n5)CC4)ccc3C2=O)C(=O)N1` [GT-04951, 2-(2-((cyclopropylmethyl)amino)pyridin-4-yl)-N-(3-(difluoromethyl)-1-(1-((2-(2,4-dioxotetrahydropyrimidin-1(2H)-yl)-1-oxoisoindolin-5-yl)methyl)piperidin-4-yl)-1H-pyrazol-4-yl) oxazole-4-carboxamide]?
IC50 [1]: 500 to 1000 nM; IC50 [2]: 100 to 300 nM; IC50 (JEKO-1): 100 to 300 nM

What does the source list for `O=C1CCN(N2Cc3cc(CN4CCC(n5cc(NC(=O)c6cnn7ccc(N8C[C@H]9C[C@@H]8CO9)nc67)c(C(F)F)n5)CC4)ccc3C2=O)C(=O)N1` [GT-05028, 5-((1R,4R)-2-oxa-5-azabicyclo[2.2.1]heptan-5-yl)-N-(3-(difluoromethyl)-1-(1-((2-(2,4-dioxotetrahydropyrimidin-1(2H)-yl)-1-oxoisoindolin-5-yl)methyl)piperidin-4-yl)-1H-pyrazol-4-yl)pyrazolo[1,5-a]pyrimidine-3-carboxamide]?
IC50 [1]: 500 to 1000 nM; IC50 [2]: 500 to 1000 nM; IC50 (JEKO-1): 300 to 500 nM

`N#Cc1ccc(O[C@H]2CC[C@H](NC(=O)c3ccc(N4CCC(CN5C[C@@H]6C[C@H]5CN6c5ccc6c(c5)C(=O)N(N5CCC(=O)NC5=O)C6=O)CC4)nn3)CC2)cc1Cl` [GT-05226, N-((1r,4r)-4-(3-chloro-4-cyanophenoxy)cyclohexyl)-6-(4-(((1S,4S)-5-(2-(2,4-dioxotetrahydropyrimidin-1(2H)-yl)-1,3-dioxoisoindolin-5-yl)-2,5-diazabicyclo[2.2.1]heptan-2-yl)methyl)piperidin-1-yl)pyridazine-3-carboxamide] was tested. Which inhibition at 0.01 µM [3] did it give?
Its inhibition at 0.01 µM is 10 to 15%.

What about the inhibition at 0.5 µM [3] of the same compound?
The inhibition at 0.5 µM was 25 to 30%.

Which inhibition at 0.01 µM [4] does the source give for `O=C1CCN(N2C(=O)c3cccc(N4CCC(CN5CCC(n6cc(NC(=O)c7cnn8ccc(N9C[C@H]%10C[C@@H]9CO%10)nc78)c(C(F)F)n6)CC5)CC4)c3C2=O)C(=O)N1` [GT-05285, 5-((1R,4R)-2-oxa-5-azabicyclo[2.2.1]heptan-5-yl)-N-(3-(difluoromethyl)-1-(1-((1-(2-(2,4-dioxotetrahydropyrimidin-1(2H)-yl)-1,3-dioxoisoindolin-4-yl)piperidin-4-yl)methyl)piperidin-4-yl)-1H-pyrazol-4-yl)pyrazolo[1,5-a]pyrimidine-3-carboxamide] here?
The inhibition at 0.01 µM was -5 to 0%.

What about the inhibition at 0.5 µM [4] of the same compound?
Its inhibition at 0.5 µM is 80 to 100%.

What about the inhibition at 0.01 µM [5] of the same compound?
The inhibition at 0.01 µM was 45 to 50%.

What about the inhibition at 0.5 µM [5] of the same compound?
The inhibition at 0.5 µM was 80 to 100%.

With `O=C1CCN(N2Cc3cc(CN4CCC(n5cc(NC(=O)c6cnn7ccc(N8CCOCC8)nc67)c(C(F)F)n5)CC4)ccc3C2=O)C(=O)N1` [GT-05749] as the compound, how does the inhibition at 0.01 µM [4] read?
Its inhibition at 0.01 µM is 7 to 10%.

What about the inhibition at 0.5 µM [4] of the same compound?
Its inhibition at 0.5 µM is 60 to 80%.

What about the inhibition at 0.01 µM [5] of the same compound?
Its inhibition at 0.01 µM is 0 to 10%.

And the inhibition at 0.5 µM [5]?
The inhibition at 0.5 µM was 80 to 100%.

For `N#Cc1ccc(O[C@H]2CC[C@H](NC(=O)c3ccc(N4CCC(CN5CC6CCC5CN6c5ccc6c(c5)C(=O)N(N5CCC(=O)NC5=O)C6=O)CC4)nn3)CC2)cc1Cl` (stereo partly drawn) [GT-05832, N-((1r,4r)-4-(3-chloro-4-cyanophenoxy)cyclohexyl)-6-(4-((5-(2-(2,4-dioxotetrahydropyrimidin-1(2H)-yl)-1,3-dioxoisoindolin-5-yl)-2,5-diazabicyclo[2.2.2]octan-2-yl)methyl)piperidin-1-yl)pyridazine-3-carboxamide], which inhibition at 0.01 µM [6] is on record?
Its inhibition at 0.01 µM is -5 to 0%.

And the inhibition at 0.5 µM [6]?
Its inhibition at 0.5 µM is 30 to 40%.

And the inhibition at 0.01 µM [3]?
The inhibition at 0.01 µM was 10 to 15%.

And the inhibition at 0.5 µM [3]?
Its inhibition at 0.5 µM is 40 to 60%.

For `CC1(C)[C@H](NC(=O)c2ccc(N3CCC(CN4CC5CCC4CN5c4ccc5c(c4)C(=O)N(N4CCC(=O)NC4=O)C5=O)CC3)nc2)C(C)(C)[C@H]1Oc1ccc(C#N)c(Cl)c1` (stereo partly drawn) [GT-05834, N-((1r,3r)-3-(3-chloro-4-cyanophenoxy)-2,2,4,4-tetramethylcyclobutyl)-6-(4-((5-(2-(2,4-dioxotetrahydropyrimidin-1(2H)-yl)-1,3-dioxoisoindolin-5-yl)-2,5-diazabicyclo[2.2.2]octan-2-yl)methyl)piperidin-1-yl)nicotinamide], which inhibition at 0.01 µM [6] is on record?
The inhibition at 0.01 µM was 10 to 15%.

And the inhibition at 0.5 µM [6]?
The inhibition at 0.5 µM was 40 to 60%.

And the inhibition at 0.01 µM [3]?
Its inhibition at 0.01 µM is 15 to 20%.

And the inhibition at 0.5 µM [3]?
Its inhibition at 0.5 µM is 40 to 60%.

— US20260364184A1, “COMPOUND BASED ON OXOISOINDOLINYL-SUBSTITUTED TETRAHYDROPYRIMIDINE-DIONE AND USE THEREOF” (GLUETACS THERAPEUTICS (SHANGHAI) CO., LTD., priority 2023, published 2026)
